Earlier results on one compound are cited in US7485427B1, “Photocleavable bioreactive agents” (The Trustees of Boston University, priority 1994, dated 2009).

This data set concerns the target avidin (Gallus gallus, UniProt P02701). Conditions: binding between avidin and biotin.

Chain of avidin (P02701 25-152): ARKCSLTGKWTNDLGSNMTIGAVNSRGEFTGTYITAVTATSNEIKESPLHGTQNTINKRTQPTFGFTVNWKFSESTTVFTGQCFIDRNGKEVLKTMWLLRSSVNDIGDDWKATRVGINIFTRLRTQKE

For `O=C(O)CCCC[C@@H]1SC[C@@H]2NC(=O)N[C@@H]21` [biotin], the “association constant (Ka)” value is “about 10^15 M^−1”.
